Source: patent publication US20260274829A1, “NEW E3 UBIQUITIN LIGASE LIGAND, PROTEIN DEGRADATION AGENT AND USE THEREOF” (GLUETACS THERAPEUTICS (SHANGHAI) CO., LTD., priority 2023, published 2026)

Biological target: T1, human Cereblon WT GST-tagged protein (Homo sapiens, UniProt Q96SW2)
T1 construct: purchased CISBIO 64BDCRBNPEH
Experiment: CRBN binding, HTRF CEREBLON BINDING kit
Details: CRBN binding; for IC50: HTRF CEREBLON BINDING kit
Method in brief: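 Binding inhibition was calculated from the 665/620 nm emission ratios, with blank wells and solvent wells as references. Test compounds competed for GST-tagged human Cereblon WT against a Thalidomide-Re reagent paired with GST Eu antibody. Plates were sealed and held at room temperature for 3 hours before the HTRF read.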

T1 sequence (Q96SW2 whole entry): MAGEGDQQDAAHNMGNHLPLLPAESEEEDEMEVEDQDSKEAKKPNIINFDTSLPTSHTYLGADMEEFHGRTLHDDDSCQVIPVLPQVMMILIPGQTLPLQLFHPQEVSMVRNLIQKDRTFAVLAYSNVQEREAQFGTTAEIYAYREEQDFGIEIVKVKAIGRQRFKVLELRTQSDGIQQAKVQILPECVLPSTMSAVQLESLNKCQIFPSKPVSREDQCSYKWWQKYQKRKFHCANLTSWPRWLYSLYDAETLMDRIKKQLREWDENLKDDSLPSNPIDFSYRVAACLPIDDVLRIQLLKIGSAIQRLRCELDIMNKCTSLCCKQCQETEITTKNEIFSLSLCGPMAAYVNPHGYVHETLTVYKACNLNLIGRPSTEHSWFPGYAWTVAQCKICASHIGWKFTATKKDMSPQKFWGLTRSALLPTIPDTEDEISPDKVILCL

COc1cc2nn(C3CCN(Cc4cc(N5CCC(=O)NC5=O)cnc4F)CC3)cc2cc1NC(=O)c1cccc(C(F)(F)F)c1 [GT-07781, N-(2-(1-((5-(2,4-dioxotetrahydropyrimidin-1(2H)-yl)-2-fluoropyridin-3-yl)methyl)piperidin-4-yl)-6-methoxy-2H-indazol-5-yl)-3-(trifluoromethyl)benzamide]
Inhibition rate (%) at 0.5 μM (HTRF, compound at 0.5 μM): a1 (10% < a1 ≤ 20%) | Inhibition rate (%) at 2 μM (HTRF, compound at 2 μM): a5 (53% < a5 ≤ 60%)

Cc1nc2c(F)cc(-c3nc(Nc4ccc(N5CCC(N6CCN(Cc7cccc(N8CCC(=O)NC8=O)c7)CC6)CC5)cn4)ncc3F)cc2n1C(C)C [GT-06740, 1-(3-((4-(1-(6-((5-fluoro-4-(4-fluoro-1-isopropyl-2-methyl-1H-benzo[d]imidazol-6-yl)pyrimidin-2-yl)amino)pyridin-3-yl)piperidin-4-yl)piperazin-1-yl)methyl)phenyl)dihydropyrimidine-2,4(1H,3H)-dione]
IC50: 500 to 1000 nM

O=C1CCC(c2ccc(CN3C[C@H]4C[C@@H]3CN4c3ccc(-c4cc(F)c5c(c4)C(=O)N(C(C(=O)Nc4nccs4)c4ncn6c4CCC6)C5)cc3)nc2)C(=O)N1 (stereo partly drawn) [GT-07389, 2-(6,7-dihydro-5H-pyrrolo[1,2-c]imidazol-1-yl)-2-(6-(4-((1R,4R)-5-((5-(2,6-dioxopiperidin-3-yl)pyridin-2-yl)methyl)-2,5-diazabicyclo[2.2.1]heptan-2-yl)phenyl)-4-fluoro-1-oxoisoindolin-2-yl)-N-(thiazol-2-yl)acetamide]
IC50: < 500 nM

Nc1nnc(-c2cc(F)ccc2O)cc1N1CCN(Cc2ccc(C3CCC(=O)NC3=O)cc2)CC1 (centres unmarked) [GT-05062, 3-(4-((4-(3-amino-6-(5-fluoro-2-hydroxyphenyl)pyridazin-4-yl)piperazin-1-yl)methyl)phenyl)piperidine-2,6-dione]
IC50: 500 to 1000 nM

Nc1nnc(-c2ccccc2O)cc1N1CCN(Cc2cccc(N3CCC(=O)NC3=O)c2)CC1 [GT-04962, 1-(3-((4-(3-amino-6-(2-hydroxyphenyl)pyridazin-4-yl)piperazin-1-yl)methyl)phenyl)dihydropyrimidine-2,4(1H,3H)-dione]
IC50: 1000 to 1900 nM

Cc1cc(-c2nc(C(=O)Nc3cc4oc(N5CCN(Cc6cccc(N7CCC(=O)NC7=O)c6)CC5)nc4nc3N3CC[C@@H](O)C3)co2)ccn1 [GT-05808, (R)—N-(2-(4-(3-(2,4-dioxotetrahydropyrimidin-1(2H)-yl)benzyl)piperazin-1-yl)-5-(3-hydroxypyrrolidin-1-yl)oxazolo[4,5-b]pyridin-6-yl)-2-(2-methylpyridin-4-yl)oxazole-4-carboxamide]
IC50: 500 to 1000 nM

O=C1CCC(c2cc(CN3CCN(c4ccc(-c5cc(F)c6c(c5)C(=O)N(C(C(=O)Nc5nccs5)c5ncn7c5CCC7)C6)cc4)CC3)ccn2)C(=O)N1 (centres unmarked) [GT-07392, 2-(6,7-dihydro-5H-pyrrolo[1,2-c]imidazol-1-yl)-2-(6-(4-(4-((2-(2,6-dioxopiperidin-3-yl)pyridin-4-yl)methyl)piperazin-1-yl)phenyl)-4-fluoro-1-oxoisoindolin-2-yl)-N-(thiazol-2-yl)acetamide]
IC50: 1000 to 1900 nM

O=C1CCN(c2cccc(CN3C[C@@H]4C[C@H]3CN4c3ccc(-c4cc(F)c5c(c4)C(=O)N(C(C(=O)Nc4nccs4)c4ncn6c4CCC6)C5)cc3)c2)C(=O)N1 (stereo partly drawn) [GT-05117, 2-(6,7-dihydro-5H-pyrrolo[1,2-c]imidazol-1-yl)-2-(6-(4-((1S,4S)-5-(3-(2,4-dioxotetrahydropyrimidin-1(2H)-yl)benzyl)-2,5-diazabicyclo[2.2.1]heptan-2-yl)phenyl)-4-fluoro-1-oxoisoindolin-2-yl)-N-(thiazol-2-yl)acetamide]
IC50: 500 to 1000 nM

O=C1CCN(c2cccc(CN3CCN(C4CCN(c5ccc(-c6cc(F)c7c(c6)C(=O)N(C(C(=O)Nc6nccs6)c6ncn8c6CCC8)C7)cc5)CC4)CC3)c2)C(=O)N1 (centres unmarked) [GT-06245, 2-(6,7-dihydro-5H-pyrrolo[1,2-c]imidazol-1-yl)-2-(6-(4-(4-(4-(3-(2,4-dioxotetrahydropyrimidin-1(2H)-yl)benzyl)piperazin-1-yl)piperidin-1-yl)phenyl)-4-fluoro-1-oxoisoindolin-2-yl)-N-(thiazol-2-yl)acetamide]
IC50: < 500 nM

CC(C)(O)c1cc2nc(C3CCN(Cc4cccc(N5CCC(=O)NC5=O)c4)CC3)oc2cc1NC(=O)c1cccc(C(F)(F)F)n1 [GT-05773, N-(2-(1-(3-(2,4-dioxotetrahydropyrimidin-1(2H)-yl)benzyl)piperidin-4-yl)-5-(2-hydroxypropan-2-yl)benzo[d]oxazol-6-yl)-6-(trifluoromethyl)picolinamide]
IC50: 500 to 1000 nM

O=C1CCN(c2ccc(CN3C4CCC3CN(c3ccc(-c5cc(F)c6c(c5)C(=O)N(C(C(=O)Nc5nccs5)c5ncn7c5CCC7)C6)cc3)C4)cc2)C(=O)N1 (centres unmarked) [GT-06253, 2-(6,7-dihydro-5H-pyrrolo[1,2-c]imidazol-1-yl)-2-(6-(4-(8-(4-(2,4-dioxotetrahydropyrimidin-1(2H)-yl)benzyl)-3,8-diazabicyclo[3.2.1]octan-3-yl)phenyl)-4-fluoro-1-oxoisoindolin-2-yl)-N-(thiazol-2-yl)acetamide]
IC50: 500 to 1000 nM

Cc1cc(Nc2ncc(Cl)c(Nc3ccccc3S(=O)(=O)C(C)C)n2)c(OC(C)C)cc1C1CCN(Cc2ccc(C3CCC(=O)NC3=O)cc2)CC1 (centres unmarked) [GT-07364, 3-(4-((4-(4-((5-chloro-4-((2-(isopropylsulfonyl)phenyl)amino)pyrimidin-2-yl)amino)-5-isopropoxy-2-methylphenyl)piperidin-1-yl)methyl)phenyl)piperidine-2,6-dione]
IC50: 500 to 1000 nM

Cc1ccc(-c2c(C)noc2C)cc1N(CC1CCN(Cc2ccc(N3CCC(=O)NC3=O)cc2F)CC1)c1ccc(C2(C#N)CC2)cc1 [GT-04973, 1-(4-((5-(3,5-dimethylisoxazol-4-yl)-2-methylphenyl)((1-(4-(2,4-dioxotetrahydropyrimidin-1(2H)-yl)-2-fluorobenzyl)piperidin-4-yl)methyl)amino)phenyl)cyclopropane-1-carbonitrile]
IC50: 1000 to 1900 nM

COc1cc2nn(C3CCN(Cc4ccc(C5CCC(=O)NC5=O)cc4)CC3)cc2cc1NC(=O)c1cccc(C(F)(F)F)c1 (centres unmarked) [GT-04747, N-(2-(1-(4-(2,6-dioxopiperidin-3-yl)benzyl)piperidin-4-yl)-6-methoxy-2H-indazol-5-yl)-3-(trifluoromethyl)benzamide]
IC50: 500 to 1000 nM

CCc1cc2c(cc1N1CCC(N3CCN(Cc4cccc(NC5CCC(=O)NC5=O)c4)CC3)CC1)C(C)(C)c1[nH]c3cc(C#N)ccc3c1C2=O (centres unmarked) [GT-07313, 8-(4-(4-(3-((2,6-dioxopiperidin-3-yl)amino)benzyl)piperazin-1-yl)piperidin-1-yl)-9-ethyl-6,6-dimethyl-11-oxo-6,11-dihydro-5H-benzo[b]carbazole-3-carbonitrile]
IC50: 1000 to 1900 nM

COc1cc2nn(C3CCN(Cc4ccc(N5CCC(=O)NC5=O)c(F)c4)CC3)cc2cc1NC(=O)c1cccc(C(F)(F)F)n1 [GT-04775, N-(2-(1-(4-(2,4-dioxotetrahydropyrimidin-1(2H)-yl)-3-fluorobenzyl)piperidin-4-yl)-6-methoxy-2H-indazol-5-yl)-6-(trifluoromethyl)picolinamide]
IC50: 1000 to 1900 nM

O=C1CCN(c2cccc(CN3CCN(C4CCN(c5ccc(Nc6ncc7nc(Nc8ccccc8)n(C8CCCC8)c7n6)cc5)CC4)CC3)c2)C(=O)N1 [GT-05940, 1-(3-((4-(1-(4-((9-cyclopentyl-8-(phenylamino)-9H-purin-2-yl)amino)phenyl)piperidin-4-yl)piperazin-1-yl)methyl)phenyl)dihydropyrimidine-2,4(1H,3H)-dione]
IC50: 500 to 1000 nM

CN(Cc1cccc(NC2CCC(=O)NC2=O)c1)C1CCN(c2ccc(Nc3ncc4nc(Nc5ccccc5)n(C5CCCC5)c4n3)cc2)CC1 (centres unmarked) [GT-07094, 3-((3-(((1-(4-((9-cyclopentyl-8-(phenylamino)-9H-purin-2-yl)amino)phenyl)piperidin-4-yl)(methyl)amino)methyl)phenyl)amino)piperidine-2,6-dione]
IC50: 1000 to 1900 nM

O=C1CCC(Nc2cccc(CN3CCN(c4ccc5c(c4)nc(NC(=O)c4cccc(C(F)(F)F)c4)n5[C@H]4CC[C@@H](CO)CC4)CC3)c2)C(=O)N1 (some centres unmarked) [GT-04985, N-(5-(4-(3-((2,6-dioxopiperidin-3-yl)amino)benzyl)piperazin-1-yl)-1-((1s,4s)-4-(hydroxymethyl)cyclohexyl)-1H-benzo[d]imidazol-2-yl)-3-(trifluoromethyl)benzamide]
IC50: 500 to 1000 nM

COc1cc(N2CCC(N3CCN(Cc4cccc(N5CCC(=O)NC5=O)c4)CC3)CC2)c(C)cc1Nc1ncc(Br)c(Nc2ccc3nccnc3c2P(C)(C)=O)n1 [GT-04260, 1-(3-((4-(1-(4-((5-bromo-4-((5-(dimethylphosphoryl)quinoxalin-6-yl)amino)pyrimidin-2-yl)amino)-5-methoxy-2-methylphenyl)piperidin-4-yl)piperazin-1-yl)methyl)phenyl)dihydropyrimidine-2,4(1H,3H)-dione]
IC50: 1000 to 1900 nM

O=C1CCC(Nc2cccc(CN3CCN(C4CCN(c5ccc(-c6cc(F)c7c(c6)C(=O)N(C(C(=O)Nc6nccs6)c6ncn8c6CCC8)C7)cc5)CC4)CC3)c2)C(=O)N1 (centres unmarked) [GT-06247, 2-(6,7-dihydro-5H-pyrrolo[1,2-c]imidazol-1-yl)-2-(6-(4-(4-(4-(3-((2,6-dioxopiperidin-3-yl)amino)benzyl)piperazin-1-yl)piperidin-1-yl)phenyl)-4-fluoro-1-oxoisoindolin-2-yl)-N-(thiazol-2-yl)acetamide]
IC50: 500 to 1000 nM

O=C1CCN(c2cncc(CN3CCN(c4ccc(-c5cc(F)c6c(c5)C(=O)N(C(C(=O)Nc5nccs5)c5ncn7c5CCC7)C6)cc4)CC3)c2)C(=O)N1 (centres unmarked) [GT-07380, 2-(6,7-dihydro-5H-pyrrolo[1,2-c]imidazol-1-yl)-2-(6-(4-(4-((5-(2,4-dioxotetrahydropyrimidin-1(2H)-yl)pyridin-3-yl)methyl)piperazin-1-yl)phenyl)-4-fluoro-1-oxoisoindolin-2-yl)-N-(thiazol-2-yl)acetamide]
IC50: < 500 nM
